The source of these data is patent US4908441A, “Deoxyadenosine compounds and methods of making and using the same” (Warner-Lambert Company, priority 1988, dated 1990).

For data set [1] the following is noted: mammals and Phase 1 clinical trial in patients; Carson et al. 1984; cited from earlier work.
Data set [2] can be described thus: water solubility. The data set is classed as physicochemical.
Data set [3] relates to Colon 08. Kind of data set: tumor growth delay assay, Colon 08. The arrangement: key to Rating: Tx: Toxic; ++++: High Activity; +++: Marked Activity; ++: Moderate Activity; +: Slight Activity; -: Inactive; UT: Unsatisfactory Test. The data set is classed as in vivo, mouse (CD2F1 hybrid). As to conditions: 15 mg/kg (dose of greatest activity), IP. How it is done: (§1) A test protocol to show activity of the compounds of the present invention against solid tumors was that described below, for example, in inhibiting the growth of colon tumors.
(§2) The tumor growth delay assay assesses the antitumor activity of a test agent by measurement of the treatment-induced delay of tumor growth.
(§3) Test animals were CD2F1 hybrid mice derived from the inbred strain of tumor origin. After the required mice were randomized they received 30-50 mg subcutaneous implants of either colon 36 or colon 8 by trocar on Day 0. Samples of each donor tumor were incubated in thioglycolate media as a check for contamination of the tumor material. After tumor inoculation mice were rerandomized and distributed at 10 mice per treatment group (20 for control).
(§4) Drug treatment was initiated when tumors reached measurement in two dimensions by the formula:
(§5) tumor weight (mg)=(a+b^2)
(§6) where a and b are the tumor length and width, respectively. Drug, suspended in methyl-cellulose, was administered intraperitoneally Q4HX3 for nine consecutive days in a range of toxic to nontoxic doses. Tumor-bearing control groups were injected with methyl-cellulose. Animal survival was monitored daily. Tumors were measured twice weekly and animal weights recorded on a weekly basis. All dead mice were autopsied to determine the cause of death (drug or tumor). Any mouse bearing a tumor larger than the smallest lethal control tumor for two consecutive measurements was sacrificed, provided that greater than 25 days had elapsed since last treatment. Any tumor-free mouse was retained long enough so that a single surviving tumor cell at last treatment could grow to an unmistakable subcutaneous tumor.
(§7) T/C was calculated based on the difference in days required for the treated (T) and control (C) groups to reach an evaluation size of 1000 mg. Gross and net logs of cell kill were determined based on standard methodologies. The degree of activity or rating is a function of cell kill. Activity is defined in accordance with the standard methodologies as follows: […]

Data set [4] relates to L1210 leukemia cells. Description: in vivo assay for antileukemic activity (median lifespan). Further details: species or system mouse (male CD2 F1); key to % T/C Animals (1): Tx = Toxic. As to conditions: IP once daily Days 3-7. How it is done: Another test protocol is the in vivo assay for antileukemic activity. This assay is carried out with male CD2 F1 mice (six per treatment group) that weigh 22-24 grams at first treatment. L1210 leukemia cells are harvested from the peritoneal ascites fluid of a leukemic male DBA2 mouse and diluted with sterile 0.9% saline containing 2.1% W/V bovine serum albumin, 2000 U/ml penicillin, and 0.3 mg/ml streptomycin. The cells are counted with a Coulter counter. The mice are randomized, inoculated with 10^4 L1210 cells (0.5 ml, IP), and rerandomized to treatment or control groups on Day 0. The test compound is dissolved in 10% aqueous dimethylsulfoxide. Treatment groups are injected IP with 0.5 ml of freshly made DMSO solutions of the test compound once daily on Days 3-7. Control mice are treated with 0.5 ml 10% dimethylsulfoxide. All mice are weighed on Days 3 and 7 and all dying mice are autopsied to confirm the presence of advanced leukemia. A % T/C value [T/C computed as (median lifespan of the treated group/median lifespan of the control group)] greater than 125 is considered as showing significant activity. The results for nucleotide compounds and compositions of the invention exemplified by 3'-acetyl-2-chloro-2'-deoxy-5'-adenylic acid, monosodium salt, are presented in Table I.

The test system of data set [5] is Colon 36. Kind of data set: tumor growth delay assay, Colon 36. The data set is classed as in vivo, mouse (CD2F1 hybrid). Further details: key to Rating: Tx: Toxic; ++++: High Activity; +++: Marked Activity; ++: Moderate Activity; +: Slight Activity; -: Inactive; UT: Unsatisfactory Test. The note with it: 9.5 mg/kg (dose of greatest activity), IP. The procedure: as §1, §2, §3, §4, §5, §6, §7

Setting [6] is: difference in days to reach 1000 mg.

By solubility is commonly meant the concentration that dissolves in the medium under given conditions.

Values after ≈ are worked out from the molar mass of the structure shown.

For the compound `Nc1nc(Cl)nc2c1ncn2[C@H]1C[C@H](O)[C@@H](CO)O1` [2-chloro-2'-deoxyadenosine], in data set [1], the “antileukemic and immunosuppressive activity” value was “antileukemic and immunosuppressive activity”. The “water solubility (in words)” value in data set [2] is on record as “sparingly soluble in water”. The solubility in data set [2] (in water) is ~1000 µg/mL (≈ 3.5 mM).

Regarding `CC(=O)O[C@H]1C[C@H](n2cnc3c(N)nc(Cl)nc32)O[C@@H]1COP(=O)([O-])O.O.[Na+]` [Example 1, 2-Chloro-2'-deoxy-5'-adenylic Acid, 3'-acetate, Monosodium Salt, Monohydrate], the Rating result in data set [3] is “+”; in data set [5], “++”. Moreover, the T/C in data set [3] (setting [6]) is 12.9; in data set [5] (setting [6]), 14.0. Also, the “Net Kill” value in data set [3] (net logs of cell kill) amounted to 0.4; in data set [5] (net logs of cell kill) it was 0.6. The “% T/C Animals (1)” value is reported as 124% in data set [4] (48 mg/kg, >125 significant); 126% in data set [4] (77 mg/kg, >125 significant); “Tx” in data set [4] (124 mg/kg); “Tx” in data set [4] (200 mg/kg). The “% T/C Animals (2)” value was found to be 149% in data set [4] (48 mg/kg, >125 significant); 112% in data set [4] (77 mg/kg, >125 significant); 87% in data set [4] (124 mg/kg, >125 significant).
